A short description of data set [1]: Stability of GLB in rat plasma QC samples under storage and processing conditions (HPLC-UV). It counts as in vitro ADME. The note with it: for Measured concentration / Accuracy (RE, %): rat plasma. The protocol: The stability of GLB in rat plasma was determined by analyzing QC samples that was stored in different conditions, including: 1) room-temperature, 2) light irradiation for 24 hours, 3) post-preparation (the extracted samples stored at 4 °C for 48 hours and one week), 4) three cycles of freeze and thaw (freezing at −20 °C for 24 hours and thawing at room temperature), 5) long-term stored in −20 °C for up to 2 weeks, 1 month and 3 months, respectively. All the QC samples for stability assessment were analyzed in triplicate.
Under manifold storage and processing conditions, the stability of GLB in rat plasma was evaluated by analyzing three replicates for QC samples at 0.025, 0.5 and 4 μg/mL.
Calibration standard solutions were prepared by adding 25 μL of working standard solutions of GLB and IS into 375 μL blank rat plasma to achieve final concentrations of GLB of 0.01, 0.025, 0.05, 0.1, 0.5, 1, 4 and 8 μg/mL, and IS concentration of 1 μg/mL, respectively. QC samples were prepared in the same way using the low, medium and high concentrations of 0.025, 0.5 and 4 μg/mL, respectively.

Data set [2] concerns tumor angiogenesis, growth and metastasis. Details: method as in PMID 15960897. The note with it: in vivo; cited from earlier work.
The subject of data set [3] is human carcinoma cell lines including uterine cervix cancer cells, pulmonary adenocarcinoma cells, and prostate cancer cells (PC-3M). More on the design: method as in earlier work. The note with it: multiple human carcinoma cell lines; cited from earlier work.
A short description of data set [4]: Identification of GLB metabolites in rat plasma by UPLC-ESI-QTOF-MS. Type of data set: in vivo. The following applies: rat plasma after oral GLB 100 mg/kg; tentative, no metabolite standards. From the text:
Because of two unknown chromatographic peaks were detected by HPLC after oral dose GLB in rat plasma, their structures were further identified and the metabolic pathways were investigated using UPLC-MS method. […] Based on the chromatographic retention times and mass spectral patterns (m/z and mass errors) between the parent drug and their product ions, the structures of metabolites of GLB could be estimated, in spite of lacking standards of metabolites. […] Metabolites M1 and M2 were detected at shorter retention times (2.56 and 2.86 min, respectively), and heavier molecular ions as m/z 529 (497 + 32 Da) and 513 (497 + 16 Da), respectively.
Furthermore, under the tandem mass spectrometry positive scan mode condition, the parent compound GLB was detected as protonated molecular ions at m/z 499 ([M+H]+) and sodium adduct (520, [M+Na]+), and fragment ion m/z 441, respectively (Fig. 3C). The metabolite M1 was detected as protonated molecular ions at m/z 529 ([M+H]+) and sodium adduct (m/z […], [M+Na]+), and fragment ions m/z 457, 449, 435 and 401, respectively. […]
The structure identifications of GLB and its metabolites were analyzed using a validated ultra-performance liquid chromatography- electrospray ionization-quadrupole-time-of-flight mass spectrometry (UPLC-ESI-QTOF-MS) method, as described in previous publications. […]

[5] abbreviates: Freezing storage −20 °C for 1 month, actual concentration 0.025 μg/mL.
Setting [6] is: Freezing storage −20 °C for 2 weeks, actual concentration 0.025 μg/mL.
Setting [7] is: Freezing storage −20 °C for 2 weeks, actual concentration 0.5 μg/mL.
Setting [8] is: Freezing storage −20 °C for 2 weeks, actual concentration 4 μg/mL.
The mark [9] stands for this setting: Light and room temperature for 24 hours, actual concentration 0.025 μg/mL.
The mark [10] stands for this setting: Light and room temperature for 24 hours, actual concentration 0.5 μg/mL.
Where [11] appears, read: Light and room temperature for 24 hours, actual concentration 4 μg/mL.
[12] abbreviates: Post-preparative, 4 °C for 1 week, actual concentration 0.025 μg/mL.
Setting [13] is: Post-preparative, 4 °C for 1 week, actual concentration 0.5 μg/mL.
[14] abbreviates: Post-preparative, 4 °C for 1 week, actual concentration 4 μg/mL.
[15] abbreviates: Post-preparative, 4 °C for 48 hours, actual concentration 0.025 μg/mL.
[16] abbreviates: Post-preparative, 4 °C for 48 hours, actual concentration 0.5 μg/mL.
Where [17] appears, read: Post-preparative, 4 °C for 48 hours, actual concentration 4 μg/mL.

For the molecule `CC(=O)N1N=C(c2ccc(Br)cc2)OC12C1OC(C)(C)OC1COC21COC(C)(C)O1` (centres unmarked) [GLB, Fructose-based 3-acetyl-2,3-dihydro-1,3,4-oxadiazole], in data set [1] (24 hours, 48 hours and 1 week at 4 °C, 2 weeks, 1 month and 3 months at −20 °C, three freeze-thaw cycles), the “Stability in rat plasma” value is listed as “stable”. For the same molecule, the Measured concentration stood at 0.025 ± 0.001 µg/mL in data set [1] (Freeze-thawing 3 cycles (−20 °C), actual concentration 0.025 μg/mL); 0.467 ± 0.036 µg/mL in data set [1] (Freeze-thawing 3 cycles (−20 °C), actual concentration 0.5 μg/mL); 3.732 ± 0.227 µg/mL in data set [1] (Freeze-thawing 3 cycles (−20 °C), actual concentration 4 μg/mL); 0.027 ± 0.002 µg/mL in data set [1] (setting [5]); 0.490 ± 0.015 µg/mL in data set [1] (Freezing storage −20 °C for 1 month, actual concentration 0.5 μg/mL); 4.097 ± 0.213 µg/mL in data set [1] (Freezing storage −20 °C for 1 month, actual concentration 4 μg/mL). Moreover, the Measured concentration in data set [1] (setting [6]) is 0.027 ± 0.001 µg/mL; in data set [1] (setting [7]), 0.535 ± 0.009 µg/mL; in data set [1] (setting [8]), 4.393 ± 0.090 µg/mL; in data set [1] (Freezing storage −20 °C for 3 months, actual concentration 0.025 μg/mL) it was 0.023 ± 0.002 µg/mL; in data set [1] (Freezing storage −20 °C for 3 months, actual concentration 0.5 μg/mL), 0.487 ± 0.003 µg/mL; in data set [1] (Freezing storage −20 °C for 3 months, actual concentration 4 μg/mL) it was 3.918 ± 0.063 µg/mL. Further, the Measured concentration is 0.026 ± 0.002 µg/mL in data set [1] (setting [9]); 0.486 ± 0.027 µg/mL in data set [1] (setting [10]); 3.922 ± 0.055 µg/mL in data set [1] (setting [11]); 0.026 ± 0.001 µg/mL in data set [1] (setting [12]); 0.428 ± 0.010 µg/mL in data set [1] (setting [13]); 3.668 ± 0.219 µg/mL in data set [1] (setting [14]). Besides, the Measured concentration worked out at 0.026 ± 0.001 µg/mL in data set [1] (setting [15]), 0.528 ± 0.007 µg/mL in data set [1] (setting [16]) and 4.233 ± 0.196 µg/mL in data set [1] (setting [17]). In addition, the “Accuracy (RE, %)” value in data set [1] (setting [5]) is given as 8.66%; in data set [1] (setting [6]), 8.17%; in data set [1] (setting [7]) it was 7.10%; in data set [1] (setting [8]), 9.84%; in data set [1] (setting [9]) it was 4.17%; in data set [1] (setting [10]), −2.79%. Moreover, the “Accuracy (RE, %)” value in data set [1] (setting [11]) was −1.94%; in data set [1] (setting [12]), 3.83%; in data set [1] (setting [13]) it was −14.4%; in data set [1] (setting [14]), −8.30%; in data set [1] (setting [15]), 5.31%; in data set [1] (setting [16]) it was 5.62%. Also, the “Accuracy (RE, %)” value in data set [1] (setting [17]) is on record as 5.83%. Also, the “Effect on tumor angiogenesis, growth and metastasis” value in data set [2] is “block the tumor angiogenesis, growth and metastasis in vivo”. Further, in data set [3], the Effect on proliferation entry is listed as “inhibited proliferation”.
`CC(=O)N1N=C(c2ccc(Br)cc2)OC1(C1OC(C)(C)OC1C(=O)O)C1(O)COC(C)(C)O1` (centres unmarked) [M1]: the “Identification (metabolic modification of GLB)” value in data set [4] was “Di-hydroxylation”.
